Source: patent US20220402925A1, “COMPOUNDS AND METHODS FOR THE TREATMENT OF CYSTIC FIBROSIS” (Flatley Discovery Lab, LLC, priority 2019, published 2022)

Target: T1, F508del CFTR (Homo sapiens, UniProt P13569, DEL508-508)
T1 construct: Primary CF airway epithelial cells were obtained from the UNC Cystic Fibrosis Tissue Procurement and Cell Culture Core; host or cells: primary CF airway epithelial cells
Assay: Equivalent current assay in primary CF airway epithelial cells (Corrector Activity, NAUC normalized to 3 μM VX809)
Format: cell-based
Details: NAUC as % of positive control (VX-809)
Procedure, shortened: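 Readout is NAUC: current area from forskolin/potentiator addition until CFTR-172, minus vehicle, relative to 3 μM VX809 (=1.0). Cells were primary CF epithelia at air-liquid interface ≥4 weeks, given basolateral compound for 24 h at 37° C; median of n≥4 replicates, sigmoid fit with nH fixed at 1.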

T1 sequence (P13569 with tags, fused parts or gaps DEL508-508): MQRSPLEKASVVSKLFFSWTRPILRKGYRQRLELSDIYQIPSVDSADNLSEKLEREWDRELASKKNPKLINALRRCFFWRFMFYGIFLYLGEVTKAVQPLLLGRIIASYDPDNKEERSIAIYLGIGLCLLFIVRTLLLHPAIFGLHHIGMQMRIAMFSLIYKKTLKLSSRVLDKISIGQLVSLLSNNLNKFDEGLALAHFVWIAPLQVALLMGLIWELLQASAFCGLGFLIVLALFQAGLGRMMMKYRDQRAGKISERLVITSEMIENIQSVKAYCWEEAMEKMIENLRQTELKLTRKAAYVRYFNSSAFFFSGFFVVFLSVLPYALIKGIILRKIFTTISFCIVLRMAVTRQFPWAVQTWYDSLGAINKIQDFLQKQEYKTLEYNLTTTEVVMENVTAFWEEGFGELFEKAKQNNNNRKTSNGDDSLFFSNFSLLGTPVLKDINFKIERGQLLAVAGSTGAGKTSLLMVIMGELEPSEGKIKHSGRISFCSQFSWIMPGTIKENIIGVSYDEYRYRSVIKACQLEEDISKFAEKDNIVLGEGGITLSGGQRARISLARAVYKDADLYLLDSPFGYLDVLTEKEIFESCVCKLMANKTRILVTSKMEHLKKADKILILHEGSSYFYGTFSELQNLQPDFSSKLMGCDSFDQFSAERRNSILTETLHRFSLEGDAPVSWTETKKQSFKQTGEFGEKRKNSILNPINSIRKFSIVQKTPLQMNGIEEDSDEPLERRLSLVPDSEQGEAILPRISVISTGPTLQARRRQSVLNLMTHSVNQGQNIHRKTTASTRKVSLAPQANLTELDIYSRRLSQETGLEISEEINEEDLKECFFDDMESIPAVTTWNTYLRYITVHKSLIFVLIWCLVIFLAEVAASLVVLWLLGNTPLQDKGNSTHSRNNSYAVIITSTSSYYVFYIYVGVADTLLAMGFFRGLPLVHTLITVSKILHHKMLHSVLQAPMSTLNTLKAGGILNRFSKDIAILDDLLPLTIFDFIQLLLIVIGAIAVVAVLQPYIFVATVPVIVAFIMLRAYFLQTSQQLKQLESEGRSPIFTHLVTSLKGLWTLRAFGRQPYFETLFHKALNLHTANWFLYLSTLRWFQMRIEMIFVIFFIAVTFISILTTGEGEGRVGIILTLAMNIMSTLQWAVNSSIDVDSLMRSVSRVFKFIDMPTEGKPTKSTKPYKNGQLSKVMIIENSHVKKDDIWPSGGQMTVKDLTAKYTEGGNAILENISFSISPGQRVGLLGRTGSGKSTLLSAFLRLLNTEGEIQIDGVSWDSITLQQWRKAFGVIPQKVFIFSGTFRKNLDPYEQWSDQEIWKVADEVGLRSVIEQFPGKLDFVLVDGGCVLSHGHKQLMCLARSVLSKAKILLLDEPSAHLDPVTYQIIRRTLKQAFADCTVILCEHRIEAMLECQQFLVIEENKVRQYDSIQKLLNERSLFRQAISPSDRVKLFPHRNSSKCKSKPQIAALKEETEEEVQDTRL

Corr Activity (NAUC)	SMILES
+++ (NAUC>70% of positive control)	CCN(C(=O)Cn1nc(-c2cccc(Cl)c2)c2sccc2c1=O)c1ccc2c(c1)OC(F)(F)O2 [Example 5]
+ (NAUC<40% of positive control)	CCN(C(=O)Cn1nc(-c2ccc(OC)c(S(=O)(=O)N3CCCC3)c2)c2[nH]cnc2c1=O)c1ccc2c(c1)OC(F)(F)O2 [Example 350]
+++ (NAUC>70% of positive control)	CN(C(=O)Cn1nc(-c2cccc(C#N)c2)c2oc(CN3CCCCC3)cc2c1=O)c1ccc2c(c1)OC(F)(F)O2 [Example 182, 2-(7-(3-cyanophenyl)-4-oxo-2-(piperidin-1-ylmethyl)furo[2,3-d]pyridazin-5(4H)-yl)-N-(2,2-difluorobenzo[d][1,3]dioxol-5-yl)-N-methylacetamide]
++ (NAUC 70-40% of positive control)	CCN(C(=O)Cn1nc(-c2cccc(C#N)c2)c2[nH]ncc2c1=O)c1ccc2c(c1)OC(F)(F)O2 [Example 492, 2-(7-(3-cyanophenyl)-4-oxo-1,4-dihydro-5H-pyrazolo[3,4-d]pyridazin-5-yl)-N-(2,2-difluorobenzo[d][1,3]dioxol-5-yl)-N-ethylacetamide]
+ (NAUC<40% of positive control)	CN(C(=O)Cn1nc(-c2cc(C#N)cc(C(=O)O)c2)c2occc2c1=O)c1ccc2c(c1)OC(F)(F)O2 [Example 213, 3-cyano-5-(5-(2-((2,2-difluorobenzo[d][1,3]dioxol-5-yl)(methyl)amino)-2-oxoethyl)-4-oxo-4,5-dihydrofuro[2,3-d]pyridazin-7-yl)benzoic acid]
+++ (NAUC>70% of positive control)	N#Cc1cc(Cl)cc(-c2nn(CC(=O)N(c3ccc4c(c3)OC(F)(F)O4)C3CC3)c(=O)c3nc[nH]c23)c1 [Example 369]
+ (NAUC<40% of positive control)	CCN(C(=O)Cn1nc(-c2cc(Cl)cc(OC)c2)c2oc(C3CCC3)cc2c1=O)c1ccc2c(c1)OC(F)(F)O2 [Example 240]
+++ (NAUC>70% of positive control)	CCN(C(=O)Cn1nc(-c2cc(C#N)cc(C(C)(C)C)c2)c2occc2c1=O)c1ccc2c(c1)OC(F)(F)O2 [Example 111]
+++ (NAUC>70% of positive control)	CCN(C(=O)Cn1nc(-c2cc(C)cc(C#N)c2)c2occc2c1=O)c1cc2c(cc1C)OC(F)(F)O2 [Example 164]
+++ (NAUC>70% of positive control)	Cc1cc(C#N)cc(-c2nn(CC(=O)N(C)c3cc4c(cc3C)OC(F)(F)O4)c(=O)c3ccoc23)c1 [Example 165]
+++ (NAUC>70% of positive control)	O=C(Cn1nc(-c2cc(Cl)cc(OCc3ccccc3)c2)c2[nH]cnc2c1=O)N(c1ccc2c(c1)OC(F)(F)O2)C1CC1 [Example 396]
+ (NAUC<40% of positive control)	CC(C)n1ncc2cc(-c3nn(CC(=O)N(c4ccc5c(c4)OC(F)(F)O5)C4CC4)c(=O)c4nc[nH]c34)ccc21 [Example 430]
+++ (NAUC>70% of positive control)	CCN(C(=O)Cn1nc(-c2cccc(Cl)c2)c2[nH]cnc2c1=O)c1ccc2c(c1)OC(F)(F)O2 [Example 26]
++ (NAUC 70-40% of positive control)	N#Cc1cc(OC(F)(F)F)cc(-c2nn(CC(=O)N(c3ccc4c(c3)OC(F)(F)O4)C3CC3)c(=O)c3nc[nH]c23)c1 [Example 408]
++ (NAUC 70-40% of positive control)	CN(C(=O)Cn1nc(-c2cccc(C#N)c2)c2oc(C3CCC3)cc2c1=O)c1ccc2c(c1)OC(F)(F)O2 [Example 233]
+++ (NAUC>70% of positive control)	CCN(C(=O)Cn1nc(-c2cc(C)cc(C#N)c2)c2occc2c1=O)c1ccc2c(c1)OC(F)(F)O2 [Example 84]
+ (NAUC<40% of positive control)	COc1cc(OC)cc(-c2nn(CC(=O)N(c3ccc4c(c3)OC(F)(F)O4)C3CC3)c(=O)c3nc[nH]c23)c1 [Example 381]
++ (NAUC 70-40% of positive control)	CN(C(=O)Cn1nc(-c2cc(C#N)cc(C(F)(F)F)c2)c2occc2c1=O)c1ccc2c(c1)OC(F)(F)O2 [Example 98]

Corr Activity (NAUC)	SMILES
+++ (NAUC>70% of positive control)	CCN(C(=O)Cn1nc(-c2cccc(F)c2)c2oc(C3CC3)cc2c1=O)c1ccc2c(c1)OC(F)(F)O2 [Example 229]
++ (NAUC 70-40% of positive control)	CCN(C(=O)Cn1nc(-c2cccc(C#N)c2)c2oc(C(=O)NC3(C)CC3)cc2c1=O)c1ccc2c(c1)OC(F)(F)O2 [Example 206]
+++ (NAUC>70% of positive control)	CCN(C(=O)Cn1nc(-c2cc(C)cc(C#N)c2)c2oc(C(=O)NC(C)(C)C(F)(F)F)cc2c1=O)c1cc2c(cc1C)OC(F)(F)O2 [Example 151]
++ (NAUC 70-40% of positive control)	CCN(C(=O)Cn1nc(-c2ccc3c(c2)ncn3-c2ccccc2)c2[nH]cnc2c1=O)c1ccc2c(c1)OC(F)(F)O2 [Example 313]
+++ (NAUC>70% of positive control)	CCN(C(=O)Cn1nc(-c2cc(Cl)cc(Cl)c2)c2[nH]cnc2c1=O)c1ccc2c(c1)OC(F)(F)O2 [Example 254]
+++ (NAUC>70% of positive control)	CCN(C(=O)Cn1nc(-c2cccc(C#N)c2)c2c(c1=O)CCC2)c1ccc2nc(C)oc2c1 [Example 50]
+++ (NAUC>70% of positive control)	Cc1nc2ccc(N(C)C(=O)Cn3nc(-c4cccc(F)c4)c4sccc4c3=O)cc2o1 [Example 1, 2-(7-(3-Fluorophenyl)-4-oxothieno[2,3-d]pyridazin-5(4H)-yl)-N-methyl-N-(2-methylbenzo[d]oxazol-6-yl)acetamide]
+ (NAUC<40% of positive control)	CCN(C(=O)Cn1nc(-c2cc(OC)cc(C(F)(F)F)c2)c2[nH]cnc2c1=O)c1ccc2c(c1)OC(F)(F)O2 [Example 265]
+++ (NAUC>70% of positive control)	CCN(C(=O)Cn1nc(-c2cc(F)cc(C#N)c2)c2oc(C)cc2c1=O)c1ccc2c(c1)OC(F)(F)O2 [Example 76]
+++ (NAUC>70% of positive control)	CCN(C(=O)Cn1nc(-c2cccc(C#N)c2)c2oc3ccccc3c2c1=O)c1ccc2c(c1)OC(F)(F)O2 [Example 159]
++ (NAUC 70-40% of positive control)	O=C(Cn1nc(-c2ccc(OCC3CC3)c(Cl)c2)c2[nH]cnc2c1=O)N(c1ccc2c(c1)OC(F)(F)O2)C1CC1 [Example 465]
+++ (NAUC>70% of positive control)	CCN(C(=O)Cn1nc(-c2cccc(C#N)c2)c2oc(C(=O)NC(C)(C)C)cc2c1=O)c1ccc2c(c1F)OC(F)(F)O2 [Example 147]
+++ (NAUC>70% of positive control)	CCN(C(=O)Cn1nc(-c2cccc(Cl)c2)c2oc(C(F)F)cc2c1=O)c1ccc2c(c1)OC(F)(F)O2 [Example 186]
+++ (NAUC>70% of positive control)	CCN(C(=O)Cn1nc(-c2cc(F)cc(F)c2)c2oc(C)cc2c1=O)c1ccc2c(c1)OC(F)(F)O2 [Example 74]
+ (NAUC<40% of positive control)	CCN(C(=O)Cn1nc(-c2ccc3[nH]c4ccccc4c3c2)c2[nH]cnc2c1=O)c1ccc2c(c1)OC(F)(F)O2 [Example 295]
+++ (NAUC>70% of positive control)	CCN(C(=O)Cn1nc(-c2cc(F)cc(OC)c2)c2oc(C3CC3)cc2c1=O)c1ccc2c(c1)OC(F)(F)O2 [Example 228]
++ (NAUC 70-40% of positive control)	CCN(C(=O)Cn1nc(-c2cccc(Cl)c2)c2[nH]ncc2c1=O)c1ccc2c(c1)OC(F)(F)O2 [Example 500]
